From PMC11184945, “Inhibition mechanism investigation of quercetagetin as a potential tyrosinase inhibitor” (Frontiers in Chemistry, 2024)

Molecular target: T1, tyrosinase (mushroom) (Agaricus bisporus, UniProt C7FF04)
T1 construct: gene PPO3
Assay: L-dopa oxidation assay at […] nm with Lineweaver-Burk kinetics (Ki […], Kis […]); static fluorescence quenching, CD
Assay type: biochemical

T1 sequence (C7FF04 2-392): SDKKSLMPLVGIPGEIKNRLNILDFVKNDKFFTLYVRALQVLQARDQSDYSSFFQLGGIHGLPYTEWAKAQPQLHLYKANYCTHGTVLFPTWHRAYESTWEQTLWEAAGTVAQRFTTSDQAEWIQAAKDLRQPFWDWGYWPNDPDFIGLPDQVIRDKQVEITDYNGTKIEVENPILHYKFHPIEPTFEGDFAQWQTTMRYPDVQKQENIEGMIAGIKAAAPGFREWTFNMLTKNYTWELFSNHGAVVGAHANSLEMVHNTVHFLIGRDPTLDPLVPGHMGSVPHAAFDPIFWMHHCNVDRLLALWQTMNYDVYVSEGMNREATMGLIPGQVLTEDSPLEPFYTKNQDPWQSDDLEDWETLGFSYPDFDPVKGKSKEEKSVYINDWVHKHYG

`O=c1c(O)c(-c2ccc(O)c(O)c2)oc2cc(O)c(O)c(O)c12` [quercetagetin, 3,3′,4′,5,6,7-hexahydroxyflavone] was tested, and the IC50 was 190 ± 10 µM.
